The target in data set [1] is T1, hERG (human ether-a-go-go related gene potassium channel, KCNH2) (Homo sapiens, UniProt Q12809).
T1 construct: expressed in transfected cells; host or cells: HEK293
The data set can be described thus: hERG channel whole-cell patch clamp (Ion Channel Activity Measurement). It is filed as cell-based. The note with it: human, room temperature; for inhibition at 1 μM: pH 7.4, 1 μM test article; for inhibition at 10 μM: pH 7.4, 10 μM test article. Here is the method: HEK293 cell line expressing the human ERG (ether-a-go-go related gene) potassium channel (Potassium voltage-gated channel subfamily H member 2). cDNA strictly similar to GenBank accession number: NM_000238
(§1) Cells expressing channels were cultured in medium supplemented with 20% FBS in HAM'S F12 culture dish. Cells grew in a humidified incubator at 37° C. under 5% carbon dioxide. To passage cells, remove poor medium and rinse the cells once with PBS 1X. […] Place plate on a 37° C. warming incubator 5 min. As soon as cells are detached, add 5 ml of 37° C. complete medium. Draw cell suspension into a sterile pipet and homogenize cells gently to dissociate cells aggregates. Amplify or maintain the cells by seeding 2.5*105 cells in a 6 cm dish (final volume: 5 ml). To maintain electrophysiological performances, cell density must not exceed 80%. On the day before patch clamp experiment, 3*103 cells were seeded on coverslips in the 24-well plate and incubated at 37° C. in 5% carbon dioxide.
(§2) Glass pipette (BF150-86-10, Sutter Instruments) was made by puller (P97, Sutter Instruments). The glass pipette was manipulated using Micro-manipulator (Carm-C-S, MCI Instruments) under the microscope (AE31EF-INV, Motic). After touching the cell, a slight suction was applied to achieve high seal (GΩ). Fast capacitance (in pF) compensation was made after high seal was achieved; after achieving high seal, the membrane was broken, Cell capacitance (in pF) compensation was made from whole-cell capacitance compensation after the whole cell mode was achieved. No leak subtraction was made.
(§3) Cell was incubated with the test article for 5 minutes, or until the current reached a steady-state level. Multiple concentrations of test article were tested. The test articles were applied gradually from low to high concentration. The test and control solutions were flown into a recording chamber mounted on the stage of an inverted microscope via a gravity-fed solution delivery system. During the experiment, solutions were withdrawn from the recording chamber by vacuum aspiration. Each concentration was tested at multiple times. Each cell acted as its own control. All tests were performed at room temperature (23-25° C.).
hERG current was recorded under a holding potential at −80 mV and then depolarized to 30 mV for 2.5 seconds to activate the hERG channel. The peak tail currents were induced by a repolarizing pulse to −50 mV for 4 seconds. This voltage-clamp pulse protocol was performed continuously during the experiment. An interpulse interval of 10 seconds allowed recovery from inactivation. An interpulse of −50 mV test for 0.5 second before 30 mV depolarized step was included for leak current correction

For data set [2], the target named is T2, CaV1.2 (L-type voltage-dependent calcium channel; CACNA1C, CACNB2, CACNA2D1) (Homo sapiens, UniProt Q13936).
T2 construct: expressed in transfected cells; host or cells: CHO
T2 sequence (Q13936 1-2138 isoform Q13936-12): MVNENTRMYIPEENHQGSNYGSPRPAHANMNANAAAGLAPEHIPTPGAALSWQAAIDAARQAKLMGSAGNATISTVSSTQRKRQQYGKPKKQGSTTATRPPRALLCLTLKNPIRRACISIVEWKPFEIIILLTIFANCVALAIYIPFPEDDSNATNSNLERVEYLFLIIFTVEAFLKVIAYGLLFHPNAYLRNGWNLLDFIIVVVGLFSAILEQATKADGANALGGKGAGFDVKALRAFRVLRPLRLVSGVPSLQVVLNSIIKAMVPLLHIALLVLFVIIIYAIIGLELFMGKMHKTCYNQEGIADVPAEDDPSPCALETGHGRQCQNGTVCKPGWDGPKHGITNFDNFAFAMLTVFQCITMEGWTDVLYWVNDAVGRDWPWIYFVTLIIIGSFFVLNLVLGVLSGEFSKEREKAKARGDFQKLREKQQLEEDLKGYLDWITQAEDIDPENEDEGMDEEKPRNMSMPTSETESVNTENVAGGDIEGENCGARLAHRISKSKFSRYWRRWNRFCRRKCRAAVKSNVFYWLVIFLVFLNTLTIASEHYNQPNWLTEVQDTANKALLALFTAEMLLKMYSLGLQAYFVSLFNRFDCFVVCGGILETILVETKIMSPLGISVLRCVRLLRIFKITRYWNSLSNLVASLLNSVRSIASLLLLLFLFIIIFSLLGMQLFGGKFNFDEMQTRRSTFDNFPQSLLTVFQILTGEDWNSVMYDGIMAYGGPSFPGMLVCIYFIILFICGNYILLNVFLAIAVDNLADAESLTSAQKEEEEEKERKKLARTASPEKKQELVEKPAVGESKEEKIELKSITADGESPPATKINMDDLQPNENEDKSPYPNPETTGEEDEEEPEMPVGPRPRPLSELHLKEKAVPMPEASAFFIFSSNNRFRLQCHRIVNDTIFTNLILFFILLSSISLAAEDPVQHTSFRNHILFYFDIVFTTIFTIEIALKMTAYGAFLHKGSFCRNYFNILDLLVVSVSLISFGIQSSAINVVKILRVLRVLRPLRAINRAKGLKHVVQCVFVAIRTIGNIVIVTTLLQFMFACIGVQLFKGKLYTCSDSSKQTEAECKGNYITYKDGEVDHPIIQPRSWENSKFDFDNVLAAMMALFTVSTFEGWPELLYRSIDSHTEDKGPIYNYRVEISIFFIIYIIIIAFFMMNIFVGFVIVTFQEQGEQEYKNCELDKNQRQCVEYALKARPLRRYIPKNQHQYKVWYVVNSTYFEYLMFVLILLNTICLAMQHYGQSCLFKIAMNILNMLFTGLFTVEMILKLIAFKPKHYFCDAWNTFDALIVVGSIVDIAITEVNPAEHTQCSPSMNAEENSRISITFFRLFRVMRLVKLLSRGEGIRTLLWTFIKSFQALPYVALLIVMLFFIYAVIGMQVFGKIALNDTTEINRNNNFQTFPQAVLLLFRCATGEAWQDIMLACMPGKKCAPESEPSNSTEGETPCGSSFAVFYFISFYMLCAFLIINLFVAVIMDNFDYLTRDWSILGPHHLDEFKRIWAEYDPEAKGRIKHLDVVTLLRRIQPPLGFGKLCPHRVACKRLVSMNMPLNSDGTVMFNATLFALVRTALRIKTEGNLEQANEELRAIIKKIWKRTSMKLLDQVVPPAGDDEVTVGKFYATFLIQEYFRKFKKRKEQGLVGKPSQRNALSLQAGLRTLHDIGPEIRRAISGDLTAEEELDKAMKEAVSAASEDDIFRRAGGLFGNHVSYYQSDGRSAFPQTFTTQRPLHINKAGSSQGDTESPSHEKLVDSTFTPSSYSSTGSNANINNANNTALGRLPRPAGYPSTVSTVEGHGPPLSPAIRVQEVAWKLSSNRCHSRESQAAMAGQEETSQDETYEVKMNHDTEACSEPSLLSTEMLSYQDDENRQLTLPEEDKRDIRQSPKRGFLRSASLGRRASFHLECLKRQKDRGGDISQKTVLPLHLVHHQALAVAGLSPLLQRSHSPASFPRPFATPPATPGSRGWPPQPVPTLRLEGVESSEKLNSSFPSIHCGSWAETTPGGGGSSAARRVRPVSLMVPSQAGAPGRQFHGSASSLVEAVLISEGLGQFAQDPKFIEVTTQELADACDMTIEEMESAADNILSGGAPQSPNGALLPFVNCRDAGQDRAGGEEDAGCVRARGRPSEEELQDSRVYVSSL
T2 sequence (Q08289 1-605 isoform Q08289-2 partner): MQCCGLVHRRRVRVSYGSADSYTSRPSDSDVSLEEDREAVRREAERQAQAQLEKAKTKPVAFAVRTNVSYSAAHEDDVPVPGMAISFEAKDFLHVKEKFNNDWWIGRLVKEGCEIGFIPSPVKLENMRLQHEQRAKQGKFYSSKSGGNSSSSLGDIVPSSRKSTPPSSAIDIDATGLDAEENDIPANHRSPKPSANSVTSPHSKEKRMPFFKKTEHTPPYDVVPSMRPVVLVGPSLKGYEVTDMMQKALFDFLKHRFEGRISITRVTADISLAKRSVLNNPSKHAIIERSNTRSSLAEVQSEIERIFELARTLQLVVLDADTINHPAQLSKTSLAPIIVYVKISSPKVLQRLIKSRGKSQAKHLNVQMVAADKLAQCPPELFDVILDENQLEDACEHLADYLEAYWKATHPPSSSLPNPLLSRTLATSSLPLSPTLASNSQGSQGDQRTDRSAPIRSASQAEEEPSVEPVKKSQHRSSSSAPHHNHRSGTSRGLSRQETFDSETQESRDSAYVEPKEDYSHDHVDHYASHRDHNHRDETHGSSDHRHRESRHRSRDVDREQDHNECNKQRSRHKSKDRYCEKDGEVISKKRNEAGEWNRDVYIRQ
T2 sequence (P54289 25-1091 isoform P54289-2 partner limits assumed): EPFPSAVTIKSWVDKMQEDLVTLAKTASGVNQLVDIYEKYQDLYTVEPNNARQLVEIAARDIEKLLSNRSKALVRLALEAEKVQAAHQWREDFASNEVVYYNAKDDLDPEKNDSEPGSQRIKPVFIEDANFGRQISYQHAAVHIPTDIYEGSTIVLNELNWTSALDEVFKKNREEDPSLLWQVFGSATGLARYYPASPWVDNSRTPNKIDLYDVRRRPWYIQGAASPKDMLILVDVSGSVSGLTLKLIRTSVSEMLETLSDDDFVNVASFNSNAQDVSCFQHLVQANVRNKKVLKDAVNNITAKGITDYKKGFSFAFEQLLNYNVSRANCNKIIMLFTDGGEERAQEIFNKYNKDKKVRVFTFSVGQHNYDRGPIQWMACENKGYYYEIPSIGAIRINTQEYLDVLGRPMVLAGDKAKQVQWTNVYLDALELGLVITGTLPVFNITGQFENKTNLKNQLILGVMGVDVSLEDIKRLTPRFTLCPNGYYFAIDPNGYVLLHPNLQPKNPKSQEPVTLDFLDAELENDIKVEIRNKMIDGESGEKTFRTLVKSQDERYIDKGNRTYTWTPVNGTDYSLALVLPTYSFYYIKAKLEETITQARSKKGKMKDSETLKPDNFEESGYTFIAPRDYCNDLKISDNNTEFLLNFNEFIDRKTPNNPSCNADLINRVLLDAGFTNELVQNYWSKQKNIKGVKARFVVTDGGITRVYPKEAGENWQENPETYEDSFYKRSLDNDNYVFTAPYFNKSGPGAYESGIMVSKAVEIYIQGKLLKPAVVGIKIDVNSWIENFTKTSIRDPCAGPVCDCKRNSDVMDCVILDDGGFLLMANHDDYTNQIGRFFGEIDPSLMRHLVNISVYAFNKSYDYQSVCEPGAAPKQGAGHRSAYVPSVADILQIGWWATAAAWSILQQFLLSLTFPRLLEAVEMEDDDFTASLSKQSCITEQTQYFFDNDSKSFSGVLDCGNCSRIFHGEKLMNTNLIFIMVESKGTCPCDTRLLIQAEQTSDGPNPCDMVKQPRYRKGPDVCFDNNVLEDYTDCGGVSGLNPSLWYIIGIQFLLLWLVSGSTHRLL
T2 sequence (P54289 957-1103 partner limits assumed): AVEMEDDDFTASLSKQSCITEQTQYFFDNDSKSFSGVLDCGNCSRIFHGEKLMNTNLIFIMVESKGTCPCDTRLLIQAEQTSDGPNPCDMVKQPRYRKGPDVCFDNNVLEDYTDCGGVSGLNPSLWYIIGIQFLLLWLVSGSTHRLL
The data set can be described thus: CaV1.2 channel whole-cell patch clamp (Ion Channel Activity Measurement). It is filed as cell-based. The note with it: human, room temperature; for inhibition at 5 min, 1 μM: pH 7.4, 1 μM test article; for inhibition at 5 min, 10 μM: pH 7.4, 10 μM test article, read-out: CaV 1.2 10 μM (ion-channel inhibition). Here is the method:
• CHO cell line stably expressing human calcium channel, voltage-dependent, L type, • CACNA1C: cDNA strictly similar to GenBank accession number: NM_000719 • CACNB2: cDNA strictly similar to GenBank accession number: NM_000724 • CACNA2D1: cDNA strictly similar to GenBank accession number: NM_000722 Iks Channel Cell Line:
as §1
Bath solution: 140 mM TEA-C1, 2 mM MgCl2·6H2O, 10 mM CaCl2, 10 mM HEPES, 5 mM D-glucose, pH=7.4 with TEA-OH. Pipette solution: 120 mM CsCl, 1 mM MgCl2·6H2O, 10 mM HEPES, 10 mM EGTA, 0.3 mM Na2-GTP, 4 mM Mg-ATP, pH=7.2 with CsOH.
as §2, §3
Cav1.2 current was recorded under a holding potential at −80 mV and then depolarized to +10 mV for 0.3 seconds. This protocol was repeated at 20 s intervals to observe the effect of test articles on the peak of Cav1.2 current.
(The patch-clamp technique gives a direct electrical read-out from membranes.)

Where [3] appears, read: HEK293 cells expressing the human ERG potassium channel.

SMILES strings stand for the structures. Counter-ions that a name gives are not always drawn. Bounds are passed on as bounds.

T1 sequence (Q12809 whole entry): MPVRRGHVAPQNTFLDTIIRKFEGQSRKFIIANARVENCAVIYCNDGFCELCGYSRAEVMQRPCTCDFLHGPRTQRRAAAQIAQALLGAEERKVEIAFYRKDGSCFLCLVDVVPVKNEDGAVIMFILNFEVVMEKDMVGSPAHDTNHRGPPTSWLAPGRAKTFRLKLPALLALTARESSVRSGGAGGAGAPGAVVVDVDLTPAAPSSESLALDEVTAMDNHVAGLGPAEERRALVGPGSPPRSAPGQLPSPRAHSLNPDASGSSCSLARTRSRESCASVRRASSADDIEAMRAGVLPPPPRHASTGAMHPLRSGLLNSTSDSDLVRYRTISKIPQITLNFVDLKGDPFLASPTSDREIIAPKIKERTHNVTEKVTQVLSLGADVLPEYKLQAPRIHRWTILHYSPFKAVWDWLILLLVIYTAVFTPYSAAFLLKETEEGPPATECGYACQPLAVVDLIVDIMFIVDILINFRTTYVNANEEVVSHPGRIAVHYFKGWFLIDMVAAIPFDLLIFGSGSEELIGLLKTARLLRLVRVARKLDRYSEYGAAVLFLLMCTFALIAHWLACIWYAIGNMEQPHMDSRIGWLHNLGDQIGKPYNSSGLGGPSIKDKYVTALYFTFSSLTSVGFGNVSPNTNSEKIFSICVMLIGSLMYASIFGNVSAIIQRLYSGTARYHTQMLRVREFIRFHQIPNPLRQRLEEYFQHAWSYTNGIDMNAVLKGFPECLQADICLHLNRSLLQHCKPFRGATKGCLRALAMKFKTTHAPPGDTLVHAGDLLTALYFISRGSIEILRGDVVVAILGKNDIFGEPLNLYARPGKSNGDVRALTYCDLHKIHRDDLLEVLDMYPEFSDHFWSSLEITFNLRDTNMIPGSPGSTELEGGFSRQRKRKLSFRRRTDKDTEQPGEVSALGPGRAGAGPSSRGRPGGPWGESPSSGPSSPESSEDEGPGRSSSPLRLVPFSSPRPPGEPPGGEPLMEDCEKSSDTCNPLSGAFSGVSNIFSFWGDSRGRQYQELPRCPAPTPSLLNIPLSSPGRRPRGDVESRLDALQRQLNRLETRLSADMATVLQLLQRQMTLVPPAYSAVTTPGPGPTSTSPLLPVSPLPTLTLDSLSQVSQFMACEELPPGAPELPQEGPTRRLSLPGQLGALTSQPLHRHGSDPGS

For orientation: inhibition means the change of the read-out against control, counted positive when it falls. Consider `COc1cccc(-c2ccncc2)c1Cc1c(O)cccc1-c1ccncc1` [Compound A118-I-1, 2-(2-methoxy-6-(pyridin-4-yl)benzyl)-3-(pyridin-4-yl)phenol], for which, in data set [1] (setting [3]), the inhibition at 1 μM is less than 25% and the inhibition at 10 μM was 25 to 50%. In addition, in data set [2], the inhibition at 5 min, 1 μM was less than 25% and the inhibition at 5 min, 10 μM is less than 25%.
In data set [1] (setting [3]), `NC(=O)c1ccc2c(Cc3c(O)ccc4ccccc34)c(O)ccc2c1` [Compound A122, 6-hydroxy-5-((2-hydroxynaphthalen-1-yl)methyl)-2-naphthamide] had an inhibition at 1 μM of 25 to 50% and an inhibition at 10 μM of 75 to 100%. Besides, in data set [2], the inhibition at 5 min, 1 μM is less than 25% and the inhibition at 5 min, 10 μM lay in the range of 75 to 100%.
For `NC(=O)c1ccc2c(Cc3c(O)ccc4cc(C(N)=O)ccc34)c(O)ccc2c1` [Compound A123, 5,5′-methylenebis(6-hydroxy-2-naphthamide)], in data set [1] (setting [3]), the inhibition at 1 μM is less than 25% and the inhibition at 10 μM was in the range of 25 to 50%. In addition, in data set [2], the inhibition at 5 min, 1 μM is less than 25% and the inhibition at 5 min, 10 μM was less than 25%.
Molecule `CCN(CC)CCOc1ccc2cc(C(=O)O)ccc2c1Cc1c(O)ccc2cc(C(=O)O)ccc12` [Compound A125, 5-((6-carboxy-2-(2-(diethylamino)ethoxy)naphthalen-1-yl)methyl)-6-hydroxy-2-naphthoic acid] yielded an inhibition at 1 μM in data set [1] (setting [3]) of less than 25%. In addition, in data set [2], the inhibition at 5 min, 1 μM is less than 25% and the inhibition at 5 min, 10 μM was 75 to 100%.
In the case of `COc1ccc2ccccc2c1Cc1c(OCC[N+]2(C)CCCC2)ccc2ccccc12` [Compound A129-2, 1-(2-((1-((2-methoxynaphthalen-1-yl)methyl)naphthalen-2-yl)oxy)ethyl)-1-methylpyrrolidin-1-ium formate], in data set [1] (setting [3]), the inhibition at 1 μM was 25 to 50%. Besides, in data set [2], the inhibition at 5 min, 1 μM lay in the range of 25 to 50% and the inhibition at 5 min, 10 μM was 75 to 100%.
Turning to `Oc1ccc2ccccc2c1Cc1c(OCCN2CCOCC2)ccc2ccccc12` [Compound A130, 1-((2-(2-morpholinoethoxy)naphthalen-1-yl)methyl)naphthalen-2-ol], in data set [1] (setting [3]), the inhibition at 1 μM was less than 25% and the inhibition at 10 μM fell in the range of 75 to 100%. Also, in data set [2], the inhibition at 5 min, 1 μM is 25 to 50% and the inhibition at 5 min, 10 μM lay within 75 to 100%.
The molecule `Oc1ccc2ccccc2c1Cc1c(OCCN2CCCCC2)ccc2ccccc12` [Compound A138, 1-((2-(2-(piperidin-1-yl)ethoxy)naphthalen-1-yl)methyl)naphthalen-2-ol] yielded an inhibition at 1 μM in data set [1] (setting [3]) of 75 to 100%. In data set [2], the inhibition at 5 min, 1 μM was less than 25% and the inhibition at 5 min, 10 μM lay in the range of 75 to 100%.
Consider `COc1ccc2ccccc2c1Cc1c(OCCO)ccc2ccccc12` [Compound A139-2, 2-((1-((2-methoxynaphthalen-1-yl)methyl)naphthalen-2-yl)oxy)ethan-1-ol], for which, in data set [1] (setting [3]), the inhibition at 1 μM was in the range of 75 to 100% and the inhibition at 10 μM lay in the range of 75 to 100%. Further, in data set [2], the inhibition at 5 min, 1 μM is less than 25% and the inhibition at 5 min, 10 μM lay within 75 to 100%.
In data set [1] (setting [3]), `Oc1ccc2c(c1Cc1c(O)ccc3ccccc13)CNCC2` [Compound A141, 8-((2-hydroxynaphthalen-1-yl)methyl)-1,2,3,4-tetrahydroisoquinolin-7-ol] showed an inhibition at 1 μM of less than 25% and an inhibition at 10 μM of 25 to 50%. Also, in data set [2], the inhibition at 5 min, 1 μM is less than 25% and the inhibition at 5 min, 10 μM is less than 25%.
In data set [1] (setting [3]), `Oc1ccc2c(c1Cc1c(O)ccc3c1CNCC3)CCCC2` [Compound A141-I-1, 8-((2-hydroxy-5,6,7,8-tetrahydronaphthalen-1-yl)methyl)-1,2,3,4-tetrahydroisoquinolin-7-ol] displayed an inhibition at 1 μM of less than 25% and an inhibition at 10 μM of less than 25%. For the same molecule, in data set [2], the inhibition at 5 min, 1 μM is less than 25% and the inhibition at 5 min, 10 μM is less than 25%.
Consider `CCN(CC)CCOc1ccc2nccnc2c1Cc1c(O)ccc2ccccc12` [Compound A168, 1-((6-(2-(diethylamino)ethoxy)quinoxalin-5-yl)methyl)naphthalen-2-ol], for which, in data set [1] (setting [3]), the inhibition at 1 μM was less than 25% and the inhibition at 10 μM was less than 25%. In data set [2], the inhibition at 5 min, 1 μM was less than 25% and the inhibition at 5 min, 10 μM is less than 25%.
In data set [1], `COc1cccc(C2CCNCC2)c1Cc1c(OC)cccc1C1CCNCC1` [Compound A194] registered an inhibition at 1 μM of less than 25% and an inhibition at 10 μM of 25 to 50%. Moreover, in data set [2], the inhibition at 5 min, 1 μM fell in the range of 25 to 50% and the inhibition at 5 min, 10 μM lay within 50 to 75%.
As to `COc1ccc2ccccc2c1Cc1c(OCCN(CCO)CCO)ccc2ccccc12` [Compound A195, 2,2′-((2-((1-((2-methoxynaphthalen-1-yl)methyl)naphthalen-2-yl)oxy)ethyl)azanediyl)bis(ethan-1-ol)], in data set [1] (setting [3]), the inhibition at 1 μM fell in the range of 75 to 100% and the inhibition at 10 μM fell in the range of 75 to 100%. For the same molecule, in data set [2], the inhibition at 5 min, 1 μM was less than 25% and the inhibition at 5 min, 10 μM lay within 75 to 100%.
In data set [1] (setting [3]), `COc1ccc2ccccc2c1Nc1c([N+](=O)[O-])ccc2ccccc12` [Compound A196, 2-methoxy-N-(2-nitronaphthalen-1-yl)naphthalen-1-amine] registered an inhibition at 1 μM of less than 25% and an inhibition at 10 μM of less than 25%. For the same molecule, in data set [2], the inhibition at 5 min, 1 μM is less than 25% and the inhibition at 5 min, 10 μM is less than 25%.
With `CCN(CC)CC(=O)Oc1ccc2ccccc2c1Cc1c(OC)ccc2ccccc12` [Compound A232, 1-((2-methoxynaphthalen-1-yl)methyl)naphthalen-2-yl diethylglycinate], in data set [1], the inhibition at 1 μM is 50 to 75% and the inhibition at 10 μM fell in the range of 75 to 100%. Also, in data set [2], the inhibition at 5 min, 1 μM was less than 25% and the inhibition at 5 min, 10 μM is 75 to 100%.
In data set [1] (setting [3]), `O=C(c1c(O)ccc2ccccc12)c1c(OCCN2CCCC2)ccc2ccccc12` [Compound A234, (2-hydroxynaphthalen-1-yl)(2-(2-(pyrrolidin-1-yl)ethoxy)naphthalen-1-yl)methanone] yielded an inhibition at 1 μM of 75 to 100% and an inhibition at 10 μM of 75 to 100%. For the same molecule, in data set [2], the inhibition at 5 min, 1 μM is less than 25% and the inhibition at 5 min, 10 μM was in the range of 75 to 100%.
In the case of `CCN(CC)CCNC(=O)c1ccc2ccccc2c1Cc1c(OC)ccc2ccccc12` [Compound A238, N-(2-(diethylamino)ethyl)-1-((2-methoxynaphthalen-1-yl)methyl)-2-naphthamide], in data set [1] (setting [3]), the inhibition at 1 μM was 75 to 100% and the inhibition at 10 μM lay within 75 to 100%. For the same molecule, in data set [2], the inhibition at 5 min, 1 μM lay in the range of 25 to 50% and the inhibition at 5 min, 10 μM was 75 to 100%.
With `CCOCOc1ccc2ccccc2c1Cc1c(OCCN)ccc2ccccc12` [Compound A244, 2-((1-((2-(ethoxymethoxy)naphthalen-1-yl)methyl)naphthalen-2-yl)oxy)ethan-1-amine], in data set [1] (setting [3]), the inhibition at 1 μM fell in the range of 75 to 100% and the inhibition at 10 μM is 75 to 100%. In data set [2], the inhibition at 5 min, 1 μM was less than 25% and the inhibition at 5 min, 10 μM lay within 25 to 50%.
`CCCCCCOc1ccc2ccccc2c1Cc1c(OCCN)ccc2ccccc12` [Compound A247, 2-((1-((2-(hexyloxy)naphthalen-1-yl)methyl)naphthalen-2-yl)oxy)ethan-1-amine] returned an inhibition at 1 μM in data set [1] (setting [3]) of less than 25%. The inhibition at 5 min, 1 μM in data set [2] is less than 25%.
For `CCOCOc1ccc2ccccc2c1Cc1c(OCCN2CCCC2)ccc2ccccc12` [Compound A254, 1-(2-((1-((2-(ethoxymethoxy)naphthalen-1-yl)methyl)naphthalen-2-yl)oxy)ethyl)pyrrolidine], in data set [1] (setting [3]), the inhibition at 1 μM is less than 25% and the inhibition at 10 μM fell in the range of 75 to 100%. For the same molecule, in data set [2], the inhibition at 5 min, 1 μM was less than 25% and the inhibition at 5 min, 10 μM lay within 50 to 75%.

The values above are taken from patent publication US12187681B2 (Shanghai East Hospital, priority 2019, dated 2025).
